# Source: PMC7316778 (Nature Communications, 2020)
# pIC50: −log10 of the molar value. Values joined by “and” are separate entries in the source; they are usually repeats but may differ in a detail not shown here. Equal entries are not always repeated. Where two headings read alike, the source gives them in different places.
# Legend:
# Experiment in all cases: SelectScreen kinase assay
# [1] = molecular target: CAMK1D (CaMKI delta) (Homo sapiens, UniProt Q8IU85)
# Description: (§1) Selectivity profiling assays were performed by the Invitrogen SelectScreen™ Services. […] The concentration of ATP was selected to be equal to the KM, unless indicated otherwise.
# [2] = molecular target: CSNK1G1 (CK1 gamma 1) (Homo sapiens, UniProt Q9HCP0); conditions: for Inhibition at 1 µM (%): CSNK1G1 (CK1 gamma 1), ZLYTE, ATP Km app
# Description: as §1
# [3] = molecular target: JAK2 (Homo sapiens, UniProt O60674); conditions: 1 μM WEL028, 1 h preincubation
# Description: as §1
# [4] = molecular target: MAP2K1 (MEK1) (Homo sapiens, UniProt Q02750)
# Description: as §1
# [5] = molecular target: MAP2K2 (MEK2) (Homo sapiens, UniProt P36507)
# Description: as §1
# [6] = molecular target: MAP4K2 (GCK) (Homo sapiens, UniProt Q12851)
# Description: as §1
# [7] = molecular target: MAPKAPK2 (Homo sapiens, UniProt P49137)
# Description: as §1
# [8] = molecular target: T1, MYO3B (MYO3 beta) (Homo sapiens, UniProt Q8WXR4)
# T1 sequence (Q8WXR4 1-1341): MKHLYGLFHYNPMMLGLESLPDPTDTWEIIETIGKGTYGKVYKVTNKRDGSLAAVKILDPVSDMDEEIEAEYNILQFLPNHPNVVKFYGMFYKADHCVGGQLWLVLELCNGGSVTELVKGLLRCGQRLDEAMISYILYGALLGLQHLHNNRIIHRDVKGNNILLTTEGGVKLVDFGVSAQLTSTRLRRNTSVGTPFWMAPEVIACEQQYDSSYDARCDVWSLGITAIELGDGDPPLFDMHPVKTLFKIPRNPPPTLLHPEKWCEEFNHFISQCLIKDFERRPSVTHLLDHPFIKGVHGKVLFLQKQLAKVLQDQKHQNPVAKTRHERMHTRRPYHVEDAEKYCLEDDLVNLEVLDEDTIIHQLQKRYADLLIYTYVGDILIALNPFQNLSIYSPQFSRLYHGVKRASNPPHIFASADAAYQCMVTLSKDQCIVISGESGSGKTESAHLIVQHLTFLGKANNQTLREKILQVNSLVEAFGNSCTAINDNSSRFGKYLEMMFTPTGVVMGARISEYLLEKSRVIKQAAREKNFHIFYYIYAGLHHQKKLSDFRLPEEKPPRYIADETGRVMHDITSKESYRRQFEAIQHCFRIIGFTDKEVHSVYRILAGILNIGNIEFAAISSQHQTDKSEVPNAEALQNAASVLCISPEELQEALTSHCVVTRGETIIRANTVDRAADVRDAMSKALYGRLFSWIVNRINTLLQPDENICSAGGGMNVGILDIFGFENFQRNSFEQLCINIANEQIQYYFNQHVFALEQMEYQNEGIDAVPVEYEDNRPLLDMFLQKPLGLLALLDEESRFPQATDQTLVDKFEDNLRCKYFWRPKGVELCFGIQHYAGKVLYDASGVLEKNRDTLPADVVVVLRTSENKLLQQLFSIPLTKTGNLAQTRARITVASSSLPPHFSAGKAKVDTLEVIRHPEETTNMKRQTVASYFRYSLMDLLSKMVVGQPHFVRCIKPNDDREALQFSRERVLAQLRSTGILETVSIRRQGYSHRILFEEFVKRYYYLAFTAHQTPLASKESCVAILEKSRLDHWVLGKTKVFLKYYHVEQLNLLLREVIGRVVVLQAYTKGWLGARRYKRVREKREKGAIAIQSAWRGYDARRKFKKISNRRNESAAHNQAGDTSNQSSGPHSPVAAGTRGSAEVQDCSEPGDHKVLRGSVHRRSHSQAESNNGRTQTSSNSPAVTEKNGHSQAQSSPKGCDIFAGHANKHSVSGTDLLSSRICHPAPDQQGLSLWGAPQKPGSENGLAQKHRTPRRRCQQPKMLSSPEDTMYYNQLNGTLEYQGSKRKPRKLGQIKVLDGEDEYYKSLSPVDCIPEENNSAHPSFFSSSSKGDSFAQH
# Description: as §1
# [9] = molecular target: PIP5K1A (Homo sapiens, UniProt Q99755)
# Description: as §1
# [10] = molecular target: TNIK (Homo sapiens, UniProt Q9UKE5)
# Description: as §1
# [11] = 1 h, 1 μM WEL028, 1 h preincubation
# [12] = 1 h, log[inhibitor] (M) -5.00, ZLYTE, ATP 100
# [13] = 1 h, log[inhibitor] (M) -5.48, ZLYTE, ATP 100
# [14] = 1 h, log[inhibitor] (M) -5.95, ZLYTE, ATP 100
# [15] = 1 h, log[inhibitor] (M) -6.43, ZLYTE, ATP 100
# [16] = 1 h, log[inhibitor] (M) -6.91, ZLYTE, ATP 100
# [17] = 1 h, log[inhibitor] (M) -7.39, ZLYTE, ATP 100
# [18] = 1 h, log[inhibitor] (M) -7.86, ZLYTE, ATP 100
# [19] = 1 h, log[inhibitor] (M) -8.82, ZLYTE, ATP 100
# [20] = 1 h, log[inhibitor] (M) -9.31, ZLYTE, ATP 100
# [21] = 1 h, log[inhibitor] (M) -[…], ZLYTE, ATP 100
# [22] = IC50 on that kinase divided by IC50 on FES^S700C
# MAP2K2 (MEK2), sequence (P36507 whole entry, species assumed): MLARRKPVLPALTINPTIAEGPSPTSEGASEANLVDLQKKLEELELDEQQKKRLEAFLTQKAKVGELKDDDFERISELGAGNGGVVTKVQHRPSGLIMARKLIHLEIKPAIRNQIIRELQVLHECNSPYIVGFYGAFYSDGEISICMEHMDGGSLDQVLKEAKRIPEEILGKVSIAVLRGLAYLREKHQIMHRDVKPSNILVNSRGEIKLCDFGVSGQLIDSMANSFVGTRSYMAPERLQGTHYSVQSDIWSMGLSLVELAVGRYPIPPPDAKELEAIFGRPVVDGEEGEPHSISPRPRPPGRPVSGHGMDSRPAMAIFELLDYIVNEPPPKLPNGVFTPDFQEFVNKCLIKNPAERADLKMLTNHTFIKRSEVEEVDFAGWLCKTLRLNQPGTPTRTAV
# TNIK, sequence (Q9UKE5 whole entry): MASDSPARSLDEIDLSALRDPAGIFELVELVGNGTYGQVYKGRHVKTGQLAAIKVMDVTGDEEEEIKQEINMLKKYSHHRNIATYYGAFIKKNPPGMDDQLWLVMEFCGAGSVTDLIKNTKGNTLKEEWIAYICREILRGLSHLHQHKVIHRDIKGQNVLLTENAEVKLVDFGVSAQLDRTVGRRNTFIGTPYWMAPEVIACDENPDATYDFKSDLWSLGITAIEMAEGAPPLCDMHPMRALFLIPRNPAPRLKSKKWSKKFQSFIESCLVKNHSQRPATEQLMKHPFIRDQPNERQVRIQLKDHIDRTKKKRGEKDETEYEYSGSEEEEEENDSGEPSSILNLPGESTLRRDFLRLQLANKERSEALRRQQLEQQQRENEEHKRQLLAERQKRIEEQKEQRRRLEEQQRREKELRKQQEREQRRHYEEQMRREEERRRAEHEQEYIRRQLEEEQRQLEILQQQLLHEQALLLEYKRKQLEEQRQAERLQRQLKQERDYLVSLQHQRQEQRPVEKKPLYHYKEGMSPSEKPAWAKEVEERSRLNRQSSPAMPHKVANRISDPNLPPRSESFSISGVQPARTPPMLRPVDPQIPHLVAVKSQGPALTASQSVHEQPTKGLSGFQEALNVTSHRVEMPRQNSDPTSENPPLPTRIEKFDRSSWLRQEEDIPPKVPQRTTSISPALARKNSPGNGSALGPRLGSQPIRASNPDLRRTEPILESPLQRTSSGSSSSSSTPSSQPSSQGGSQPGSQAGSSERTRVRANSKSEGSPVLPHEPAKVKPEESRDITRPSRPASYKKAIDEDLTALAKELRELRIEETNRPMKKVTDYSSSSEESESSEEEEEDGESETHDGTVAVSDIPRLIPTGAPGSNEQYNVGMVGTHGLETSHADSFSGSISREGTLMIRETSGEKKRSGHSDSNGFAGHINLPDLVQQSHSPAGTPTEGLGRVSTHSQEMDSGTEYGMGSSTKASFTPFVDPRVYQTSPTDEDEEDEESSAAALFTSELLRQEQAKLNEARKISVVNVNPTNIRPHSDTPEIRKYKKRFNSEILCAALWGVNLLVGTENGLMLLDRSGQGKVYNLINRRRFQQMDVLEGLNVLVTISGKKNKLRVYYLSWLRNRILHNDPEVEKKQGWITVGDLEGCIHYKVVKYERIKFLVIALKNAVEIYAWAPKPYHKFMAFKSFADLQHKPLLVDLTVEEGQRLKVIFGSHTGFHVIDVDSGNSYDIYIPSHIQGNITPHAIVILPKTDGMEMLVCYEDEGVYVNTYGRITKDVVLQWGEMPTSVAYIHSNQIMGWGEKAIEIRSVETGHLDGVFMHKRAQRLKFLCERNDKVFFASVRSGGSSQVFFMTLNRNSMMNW
# PIP5K1A, sequence (Q99755 whole entry): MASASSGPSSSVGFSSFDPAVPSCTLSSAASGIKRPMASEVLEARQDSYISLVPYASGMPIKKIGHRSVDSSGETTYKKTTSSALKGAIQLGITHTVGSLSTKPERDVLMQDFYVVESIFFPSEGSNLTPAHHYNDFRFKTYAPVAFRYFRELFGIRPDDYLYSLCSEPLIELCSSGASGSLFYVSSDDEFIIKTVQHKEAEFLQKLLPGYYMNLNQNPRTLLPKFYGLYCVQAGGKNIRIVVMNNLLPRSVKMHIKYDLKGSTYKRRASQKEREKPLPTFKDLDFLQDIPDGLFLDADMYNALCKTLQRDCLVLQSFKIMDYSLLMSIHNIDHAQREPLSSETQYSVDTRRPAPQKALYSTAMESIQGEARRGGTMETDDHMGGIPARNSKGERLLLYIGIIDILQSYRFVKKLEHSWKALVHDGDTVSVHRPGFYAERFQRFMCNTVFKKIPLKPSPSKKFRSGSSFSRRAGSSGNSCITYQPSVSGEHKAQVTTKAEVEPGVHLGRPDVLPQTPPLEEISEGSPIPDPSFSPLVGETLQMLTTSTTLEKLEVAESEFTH
# CSNK1G1 (CK1 gamma 1), sequence (Q9HCP0 whole entry): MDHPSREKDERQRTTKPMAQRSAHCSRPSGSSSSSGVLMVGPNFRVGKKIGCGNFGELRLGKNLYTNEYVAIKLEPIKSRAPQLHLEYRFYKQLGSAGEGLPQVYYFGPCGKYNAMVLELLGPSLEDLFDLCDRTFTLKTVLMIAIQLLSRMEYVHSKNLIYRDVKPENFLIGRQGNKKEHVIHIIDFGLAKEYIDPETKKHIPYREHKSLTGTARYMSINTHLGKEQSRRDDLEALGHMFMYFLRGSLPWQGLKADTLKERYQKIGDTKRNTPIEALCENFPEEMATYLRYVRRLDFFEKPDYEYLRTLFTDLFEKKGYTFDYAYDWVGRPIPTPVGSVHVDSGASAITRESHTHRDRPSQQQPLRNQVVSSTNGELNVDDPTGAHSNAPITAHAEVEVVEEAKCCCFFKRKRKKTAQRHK
# MAPKAPK2, sequence (P49137 whole entry): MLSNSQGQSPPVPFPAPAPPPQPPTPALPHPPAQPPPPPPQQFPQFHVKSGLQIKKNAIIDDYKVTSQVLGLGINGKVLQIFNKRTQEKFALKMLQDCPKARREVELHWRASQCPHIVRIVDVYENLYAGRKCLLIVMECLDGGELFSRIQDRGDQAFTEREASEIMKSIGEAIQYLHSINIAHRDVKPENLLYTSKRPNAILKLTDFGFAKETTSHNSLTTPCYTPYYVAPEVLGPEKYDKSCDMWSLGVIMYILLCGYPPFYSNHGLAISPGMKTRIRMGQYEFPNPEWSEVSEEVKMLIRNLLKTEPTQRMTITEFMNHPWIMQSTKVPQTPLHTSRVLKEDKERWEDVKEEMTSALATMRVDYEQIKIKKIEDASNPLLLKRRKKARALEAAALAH
# MAP2K1 (MEK1), sequence (Q02750 whole entry, species assumed): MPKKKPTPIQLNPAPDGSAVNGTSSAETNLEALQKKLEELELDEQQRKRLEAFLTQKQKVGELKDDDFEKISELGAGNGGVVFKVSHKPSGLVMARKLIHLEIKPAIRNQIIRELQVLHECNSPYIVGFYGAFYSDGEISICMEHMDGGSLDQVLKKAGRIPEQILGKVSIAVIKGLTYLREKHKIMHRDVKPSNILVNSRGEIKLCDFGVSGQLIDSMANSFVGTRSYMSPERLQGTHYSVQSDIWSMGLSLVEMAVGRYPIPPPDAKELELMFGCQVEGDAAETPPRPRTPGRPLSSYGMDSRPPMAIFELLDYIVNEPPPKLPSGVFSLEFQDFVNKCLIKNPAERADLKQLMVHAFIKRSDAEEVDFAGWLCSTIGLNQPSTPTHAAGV
# CAMK1D (CaMKI delta), sequence (Q8IU85 whole entry): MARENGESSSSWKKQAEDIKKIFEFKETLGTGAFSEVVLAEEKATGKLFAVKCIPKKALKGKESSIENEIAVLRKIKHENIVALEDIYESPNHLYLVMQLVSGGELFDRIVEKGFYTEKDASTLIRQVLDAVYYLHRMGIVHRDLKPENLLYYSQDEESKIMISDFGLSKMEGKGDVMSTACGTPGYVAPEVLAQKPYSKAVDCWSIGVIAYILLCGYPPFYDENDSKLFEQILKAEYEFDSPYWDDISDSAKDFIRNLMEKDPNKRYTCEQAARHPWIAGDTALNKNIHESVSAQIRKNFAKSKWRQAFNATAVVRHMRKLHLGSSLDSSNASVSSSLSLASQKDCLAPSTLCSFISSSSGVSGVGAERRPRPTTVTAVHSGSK
# MAP4K2 (GCK), sequence (Q12851 whole entry): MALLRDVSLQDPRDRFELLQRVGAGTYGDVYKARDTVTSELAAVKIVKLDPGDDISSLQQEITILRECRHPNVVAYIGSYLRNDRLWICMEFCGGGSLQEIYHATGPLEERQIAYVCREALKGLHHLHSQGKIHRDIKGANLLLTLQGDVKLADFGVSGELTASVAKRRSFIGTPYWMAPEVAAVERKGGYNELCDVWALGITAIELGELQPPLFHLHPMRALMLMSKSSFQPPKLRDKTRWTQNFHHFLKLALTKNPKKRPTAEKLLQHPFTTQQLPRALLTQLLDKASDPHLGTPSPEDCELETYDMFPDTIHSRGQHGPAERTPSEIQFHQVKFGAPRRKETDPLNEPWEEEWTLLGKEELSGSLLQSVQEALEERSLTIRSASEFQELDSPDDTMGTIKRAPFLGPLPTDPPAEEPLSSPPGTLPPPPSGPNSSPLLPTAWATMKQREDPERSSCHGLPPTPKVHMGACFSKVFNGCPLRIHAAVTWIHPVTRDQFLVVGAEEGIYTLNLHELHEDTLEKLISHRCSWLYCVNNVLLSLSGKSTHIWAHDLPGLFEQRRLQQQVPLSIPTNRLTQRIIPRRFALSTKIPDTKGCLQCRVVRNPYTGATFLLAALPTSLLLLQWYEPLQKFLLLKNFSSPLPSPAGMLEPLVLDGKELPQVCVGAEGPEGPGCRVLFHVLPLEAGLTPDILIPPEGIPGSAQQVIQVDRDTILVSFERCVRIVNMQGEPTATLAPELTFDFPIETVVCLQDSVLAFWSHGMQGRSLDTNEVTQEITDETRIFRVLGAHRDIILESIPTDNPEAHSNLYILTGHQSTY
smiles,measurement,setting,value
C#CCOc1ccc(Nc2ncc(Cl)c(Nc3ccccc3NC(=O)C=C)n2)c(OC)c1 [Compound 6],inhibition at 1 µM,[1]; [11],6%
same,inhibition at 1 µM,"[1]; read-out: Inhibition at 1 µM (%), CAMK1D (CaMKI delta), 1 µM, ZLYTE, ATP Km app",5%
same,Inhibition (%),"[2]; 1 μM WEL028, 1 h preincubation",4%
same,Inhibition at 1 µM (%),[2],2%
same,Inhibition at 1 µM (%),"[2]; listed as WEL028, 1 µM",7%
same,Inhibition (%),[3],0%
same,pIC50,[4],6.60
same,inhibition at 10 µM,[4]; [12],110%
same,inhibition at 3.311 µM,[4]; [13],106%
same,inhibition at 1.122 µM,[4]; [14],106%
same,inhibition at 0.3715 µM,[4]; [15],78%
same,inhibition at 0.123 µM,[4]; [16],44%
same,inhibition at 0.04074 µM,[4]; [17],29%
same,inhibition at 0.0138 µM,[4]; [18],40%
same,inhibition at 0.001514 µM,[4]; [19],19%
same,inhibition at 0.0004898 µM,[4]; [20],18%
same,inhibition at 0.004571 µM,[4]; [21],27%
same,Apparent fold selectivity,[4]; [22],60 fold
same,Inhibition at 1 µM (%),"[4]; MAP2K1 (MEK1), 1 µM, ZLYTE, ATP 100, listed as WEL028, 1 µM",108%
same,inhibition at 1 µM,"[4]; read-out: Inhibition at 1 µM (%), MAP2K1 (MEK1), 1 µM, ZLYTE, ATP 100",113%
same,pIC50,[5],6.60
same,inhibition at 1 µM,[5]; [11],106%
same,inhibition at 10 µM,[5]; [12],104%
same,inhibition at 3.311 µM,[5]; [13],103%
same,inhibition at 1.122 µM,[5]; [14],99%
same,inhibition at 0.3715 µM,[5]; [15],68%
same,inhibition at 0.123 µM,[5]; [16],38%
same,inhibition at 0.04074 µM,[5]; [17],33%
same,inhibition at 0.0138 µM,[5]; [18],27%
same,inhibition at 0.001514 µM,[5]; [19],16%
same,inhibition at 0.0004898 µM,[5]; [20],10%
same,inhibition at 0.004571 µM,[5]; [21],20%
same,Apparent fold selectivity,[5]; [22],54 fold
same,inhibition at 1 µM,"[5]; read-out: Inhibition at 1 µM (%), MAP2K2 (MEK2), 1 µM, ZLYTE, ATP 100",109%
same,inhibition at 1 µM,[6]; [11],-12%
same,Inhibition at 1 µM (%),"[6]; MAP4K2 (GCK), 1 µM, ZLYTE, ATP Km app",-23%
same,inhibition at 1 µM,[7]; [11],7%
same,Inhibition at 1 µM (%),"[7]; MAPKAPK2, 1 µM, ZLYTE, ATP Km app, listed as WEL028, 1 µM",5%
same,inhibition at 1 µM,"[7]; read-out: Inhibition at 1 µM (%), MAPKAPK2, 1 µM, ZLYTE, ATP Km app",8%
same,inhibition at 1 µM,[8]; [11],14%
same,Inhibition at 1 µM (%),"[8]; MYO3B (MYO3 beta), 1 µM, LanthaScreen Binding, listed as WEL028, 1 µM",13%
same,inhibition at 1 µM,"[8]; read-out: Inhibition at 1 µM (%), MYO3B (MYO3 beta), 1 µM, LanthaScreen Binding",15%
same,inhibition at 1 µM,[9]; [11],-3%
same,Inhibition at 1 µM (%),"[9]; PIP5K1A, 1 µM, Adapta, ATP 10, listed as WEL028, 1 µM",1% and -7%
same,Inhibition at 1 µM (%),"[10]; 1 µM, LanthaScreen Binding, listed as WEL028, 1 µM",4%
same,inhibition at 1 µM,[10]; [11],5%
same,inhibition at 1 µM,"[10]; read-out: Inhibition at 1 µM (%), 1 µM, LanthaScreen Binding",6%
